This is an account of results in patent US20110166179A1, “ANTIBACTERIAL QUINOLINE DERIVATIVES” (priority 2007, published 2011).

Converted amounts (≈) assume the structure as drawn. Where two headings read alike, the source gives them in different places.

Common to all, as to assay type: cell-based
Experiment [1] relates to M. Smegmatis (ATCC607). Description: In-vitro anti-bacterial activity against strain M. Smegmatis ATCC607. Particulars: for IC90: Mycolicibacterium smegmatis, read-out: IC90 MSM ATCC607. As for the experimental part:
D.2. In-Vitro Method for Testing Compounds for Anti-Bacterial Activity Against Strain M. Smegmatis ATCC607. Flat-bottom, sterile 96-well plastic microtiter plates were filled with 180 μl of sterile deionized water, supplemented with 0.25% BSA. […] Serial five-fold dilutions (45 μl in 180 μl) were made directly in the microtiter plates from column 2 to 11 using a customised robot system (Zymark Corp., Hopkinton, Mass.). Pipette tips were changed after every 3 dilutions to minimize pipetting errors with high hydrophobic compounds. […] Approximately 250 CFU per well of bacteria inoculum, in a volume of 100 μl in 2.8× Mueller-Hinton broth medium, was added to the rows […]. The same volume of broth medium without inoculum was added to column 12 in row A to H. The cultures were incubated at 37° C. for 48 hours in a humidified 5% CO2 atmosphere (incubator with open air valve and continuous ventilation). At the end of incubation, two days after inoculation, the bacterial growth was quantitated fluorometrically. Therefore Alamar Blue (10×) was added to all wells in a volume of 20 μl and plates were incubated for another 2 hours at […] The fluorescence was read in a computer-controlled fluorometer (Cytofluor, Biosearch) at an excitation wavelength of 530 nm and an emission wavelength of 590 nm (gain 30).

The subject of experiment [2] is Staphylococcus aureus (ATCC29213). In words: In-vitro anti-bacterial microtitre plate assay, IC90 determination, Staphylococcus aureus. Particulars: for IC90: read-out: IC90 STA 29213. As for the experimental part: (§1) D.3. In-Vitro Method for Testing Compounds for Anti-Bacterial Activity Against Various Non-Mycobacterial Strains […] The bacteria used in this study were grown overnight in flasks containing 100 ml Mueller-Hinton Broth (Becton Dickinson-cat. no. 275730) in sterile de-ionized water, with shaking, at 37° C. Stocks (0.5 ml/tube) were stored at -70° C. until use. Bacteria titrations were performed in microtiter plates to detect the TCID50, in which the TCID50 represents the dilution that gives rise to bacterial growth in 50% of inoculated cultures. In general, an inoculum level of approximately 100 TCID50 was used for susceptibility testing. Anti Bacterial Susceptibility Testing: IC90 Determination Microtitre Plate Assay […] Depending on the bacteria type, approximately 10 to 60 CFU per well of bacteria inoculum (100 TCID50), in a volume of 100 μl in 2.8× Mueller-Hinton broth medium, was added to the rows […]. The same volume of broth medium without inoculum was added to column 12 in row A to H. The cultures were incubated at 37° C. for 24 hours under a normal atmosphere (incubator with open air valve and continuous ventilation). At the end of incubation, one day after inoculation, the bacterial growth was quantitated fluorometrically. Therefore resazurin (0.6 mg/ml) was added in a volume of 20 μl to all wells 3 hours after inoculation, and the plates were re-incubated overnight. A change in colour from blue to pink indicated the growth of bacteria. The fluorescence was read in a computer-controlled fluorometer (Cytofluor Biosearch) at an excitation wavelength of 530 nm and an emission wavelength of 590 nm. The % growth inhibition achieved by the compounds was calculated according to standard methods.

The subject of experiment [3] is Streptococcus pneumoniae (ATCC6305). Description: In-vitro anti-bacterial microtitre plate assay, IC90 determination, Streptococcus pneumoniae. Particulars: for IC90: read-out: IC90 SPN 6305. As for the experimental part: as §1
The mark [4] stands for this setting: 90% inhibitory concentration for bacterial growth, M. Smegmatis ATCC607, 48 hours, Alamar Blue fluorescence.
Where [5] appears, read: 90% inhibitory concentration for bacterial growth, Staphylococcus aureus ATCC29213, 24 hours, resazurin fluorescence.
Setting [6] is: 90% inhibitory concentration for bacterial growth, Streptococcus pneumoniae ATCC6305, 24 hours, resazurin fluorescence.

Usually IC90 stands for the concentration at which the effect reaches the 90% level.

For the molecule `COc1nc2ccc(Br)cc2cc1C(O)(CCCN(C)C)c1cccc2ccccc12` (stereo not drawn) [Compound 1], the values for the IC90 in experiment [1] (setting [4]), in experiment [2] (setting [5]) and in experiment [3] (setting [6]) were 1.91 µg/mL (≈ 3.98 µM), 7.6 µg/mL (≈ 15.9 µM) and 8.53 µg/mL (≈ 17.8 µM), respectively.
On to `COc1nc2ccc(Br)cc2cc1C(O)(CCCCN(C)C)c1cccc2ccccc12` (stereo not drawn) [Compound 2], for which the “IC90 MSM ATCC607” value in experiment [1] (setting [4]) was 7.82 µg/mL (≈ 15.8 µM). Also, the “IC90 STA 29213” value in experiment [2] (setting [5]) was determined as 39.20 µg/mL (≈ 79.4 µM). Moreover, in experiment [3] (setting [6]), the “IC90 SPN 6305” value was 9.85 µg/mL (≈ 20 µM).
As for `COc1nc2ccc(Br)cc2cc1C(O)(CCCCCN(C)C)c1cccc2ccccc12` (stereo not drawn) [Compound 3], the “IC90 MSM ATCC607” value in experiment [1] (setting [4]) came to 11.36 µg/mL (≈ 22.4 µM). Also, in experiment [2] (setting [5]), the “IC90 STA 29213” value was 8.04 µg/mL (≈ 15.8 µM). The “IC90 SPN 6305” value in experiment [3] (setting [6]) was 10.13 µg/mL (≈ 20 µM).
For `COc1nc2ccc(-c3ccccc3)cc2cc1C(O)(CCCN(C)C)c1cccc2ccccc12` (stereo not drawn) [Compound 4], the IC90 in experiment [1] (ATCC607, 48 h) turned out to be 1.51 µg/mL (≈ 3.17 µM); in experiment [2] (Staphylococcus aureus, ATCC29213, 24 h), 1.51 µg/mL (≈ 3.17 µM); in experiment [3] (Streptococcus pneumoniae, ATCC6305, 24 h) it was 1.51 µg/mL (≈ 3.17 µM).
On to `COc1nc2ccc(-c3ccccc3)cc2cc1C(O)(CCCCN(C)C)c1cccc2ccccc12` (stereo not drawn) [Compound 5], for which, in experiment [1] (setting [4]), the “IC90 MSM ATCC607” value was determined as 7.78 µg/mL (≈ 15.9 µM). Besides, the “IC90 STA 29213” value in experiment [2] (setting [5]) was 38.97 µg/mL (≈ 79.4 µM). Further, the “IC90 SPN 6305” value in experiment [3] (setting [6]) was 49.07 µg/mL (≈ 100 µM).
For `COc1nc2ccc(-c3ccccc3)cc2cc1C(O)(CCCCCN(C)C)c1cccc2ccccc12` (stereo not drawn) [Compound 6], the “IC90 MSM ATCC607” value in experiment [1] (setting [4]) was 6.35 µg/mL (≈ 12.6 µM). The “IC90 STA 29213” value in experiment [2] (setting [5]) came to 8.00 µg/mL (≈ 15.9 µM). Further, the “IC90 SPN 6305” value in experiment [3] (setting [6]) worked out at 10.07 µg/mL (≈ 20 µM).
The like results for `COc1ccccc1-c1ccc2nc(OC)c(C(O)(CCCN(C)C)c3cccc4ccccc34)cc2c1` (stereo not drawn) [Compound 7] were, in that order, 1.60 µg/mL (≈ 3.16 µM), 1.60 µg/mL (≈ 3.16 µM) and 1.8 µg/mL (≈ 3.55 µM).
In the same order, the values of `COc1ccccc1-c1ccc2nc(OC)c(C(O)(CCCCN(C)C)c3cccc4ccccc34)cc2c1` (stereo not drawn) [Compound 8] are 6.55 µg/mL (≈ 12.6 µM), 8.25 µg/mL (≈ 15.8 µM) and 10.39 µg/mL (≈ 20 µM).
For the molecule `COc1ccccc1-c1ccc2nc(OC)c(C(O)(CCCCCN(C)C)c3cccc4ccccc34)cc2c1` (stereo not drawn) [Compound 9], in experiment [1] (setting [4]), the “IC90 MSM ATCC607” value was determined as 8.47 µg/mL (≈ 15.8 µM). Further, the “IC90 STA 29213” value in experiment [2] (setting [5]) is 8.47 µg/mL (≈ 15.8 µM). Further, the “IC90 SPN 6305” value in experiment [3] (setting [6]) came to 8.47 µg/mL (≈ 15.8 µM).
Take `COc1nc2ccc(-c3ccoc3)cc2cc1C(O)(CCCN(C)C)c1cccc2ccccc12` (stereo not drawn) [Compound 10]: the “IC90 MSM ATCC607” value in experiment [1] (setting [4]) is 1.48 µg/mL (≈ 3.17 µM). The “IC90 STA 29213” value in experiment [2] (setting [5]) came to 1.66 µg/mL (≈ 3.56 µM). The “IC90 SPN 6305” value in experiment [3] (setting [6]) was 3.30 µg/mL (≈ 7.07 µM).
Turning to `COc1nc2ccc(-c3ccoc3)cc2cc1C(O)(CCCCN(C)C)c1cccc2ccccc12` (stereo not drawn) [Compound 11], in experiment [1] (setting [4]), the “IC90 MSM ATCC607” value was 7.62 µg/mL (≈ 15.9 µM). The “IC90 STA 29213” value in experiment [2] (setting [5]) is 7.62 µg/mL (≈ 15.9 µM). Moreover, the “IC90 SPN 6305” value in experiment [3] (setting [6]) worked out at 9.59 µg/mL (≈ 20 µM).
As to `COc1nc2ccc(-c3ccoc3)cc2cc1C(O)(CCCCCN(C)C)c1cccc2ccccc12` (stereo not drawn) [Compound 12], in experiment [1] (setting [4]), the “IC90 MSM ATCC607” value is 1.56 µg/mL (≈ 3.15 µM). The “IC90 STA 29213” value in experiment [2] (setting [5]) was found to be 1.56 µg/mL (≈ 3.15 µM). Moreover, in experiment [3] (setting [6]), the “IC90 SPN 6305” value stood at 1.76 µg/mL (≈ 3.56 µM).
Regarding `COc1nc2ccc(-c3cccs3)cc2cc1C(O)(CCCN(C)C)c1cccc2ccccc12` (stereo not drawn) [Compound 13], the “IC90 MSM ATCC607” value in experiment [1] (setting [4]) stood at 1.53 µg/mL (≈ 3.17 µM). Also, the “IC90 STA 29213” value in experiment [2] (setting [5]) worked out at 1.53 µg/mL (≈ 3.17 µM). Besides, the “IC90 SPN 6305” value in experiment [3] (setting [6]) turned out to be 1.71 µg/mL (≈ 3.54 µM).
Turning to `COc1nc2ccc(-c3cccs3)cc2cc1C(O)(CCCCN(C)C)c1cccc2ccccc12` (stereo not drawn) [Compound 14], the “IC90 MSM ATCC607” value in experiment [1] (setting [4]) came to 15.71 µg/mL (≈ 31.6 µM). For the same molecule, in experiment [2] (setting [5]), the “IC90 STA 29213” value came out at 39.45 µg/mL (≈ 79.4 µM). Further, the “IC90 SPN 6305” value in experiment [3] (setting [6]) was 49.67 µg/mL (≈ 100 µM).
In the same order, the values of `COc1nc2ccc(-c3cccs3)cc2cc1C(O)(CCCCCN(C)C)c1cccc2ccccc12` (stereo not drawn) [Compound 15] are 45.52 µg/mL (≈ 89.1 µM), 51.07 µg/mL (≈ 100 µM) and 51.07 µg/mL (≈ 100 µM).
Consider `COc1nc2ccc(-c3cccnc3)cc2cc1C(O)(CCCN(C)C)c1cccc2ccccc12` (stereo not drawn) [Compound 16], for which, in experiment [1] (setting [4]), the “IC90 MSM ATCC607” value came out at 1.51 µg/mL (≈ 3.16 µM). In experiment [2] (setting [5]), the “IC90 STA 29213” value amounted to 7.57 µg/mL (≈ 15.8 µM). The “IC90 SPN 6305” value in experiment [3] (setting [6]) worked out at 7.57 µg/mL (≈ 15.8 µM).
`COc1nc2ccc(-c3cccnc3)cc2cc1C(O)(CCCCN(C)C)c1cccc2ccccc12` (stereo not drawn) [Compound 17]: the “IC90 MSM ATCC607” value in experiment [1] (setting [4]) worked out at 49.16 µg/mL (≈ 100 µM). Further, the “IC90 STA 29213” value in experiment [2] (setting [5]) was found to be 49.16 µg/mL (≈ 100 µM). In addition, in experiment [3] (setting [6]), the “IC90 SPN 6305” value came out at 49.16 µg/mL (≈ 100 µM).
Regarding `COc1nc2ccc(-c3cccnc3)cc2cc1C(O)(CCCCCN(C)C)c1cccc2ccccc12` (stereo not drawn) [Compound 18], the “IC90 MSM ATCC607” value in experiment [1] (setting [4]) came out at 8.01 µg/mL (≈ 15.8 µM). For the same molecule, the “IC90 STA 29213” value in experiment [2] (setting [5]) worked out at 8.01 µg/mL (≈ 15.8 µM). The “IC90 SPN 6305” value in experiment [3] (setting [6]) worked out at 8.99 µg/mL (≈ 17.8 µM).
Turning to `COc1nc2ccc(-c3cc4ccccc4o3)cc2cc1C(O)(CCCN(C)C)c1cccc2ccccc12` (stereo not drawn) [Compound 19], the “IC90 MSM ATCC607” value in experiment [1] (setting [4]) worked out at 3.26 µg/mL (≈ 6.31 µM). Also, the “IC90 STA 29213” value in experiment [2] (setting [5]) worked out at 3.66 µg/mL (≈ 7.08 µM). In addition, the “IC90 SPN 6305” value in experiment [3] (setting [6]) is 8.19 µg/mL (≈ 15.9 µM).
Turning to `COc1nc2ccc(-c3cc4ccccc4o3)cc2cc1C(O)(CCCCCN(C)C)c1cccc2ccccc12` (stereo not drawn) [Compound 20], the “IC90 MSM ATCC607” value in experiment [1] (setting [4]) turned out to be 1.72 µg/mL (≈ 3.16 µM). Moreover, the “IC90 STA 29213” value in experiment [2] (setting [5]) is 1.72 µg/mL (≈ 3.16 µM). In addition, the “IC90 SPN 6305” value in experiment [3] (setting [6]) stood at 1.72 µg/mL (≈ 3.16 µM).
